Measured values: patent US4461761A, “Oligomers of compounds of the muramyl-peptide type and medicaments containing them” (priority 1978, dated 1984)

Assays:
Klebsiella pneumoniae [1] = assay: Anti-Klebsiella pneumoniae activity in the 7 day old mouse; type: in vivo; details: for % Protection / Number of mice D + 3 (survivors) / Number of mice D + 5 (survivors) / Number of mice D + 10 (survivors): 100 μg
Text: (§1) The testing procedure is described in the article CHEDID L. et coll., Proc. Natl. Acad. Sci. USA, 74:2089.
(§2) It was shown that a dose of about 10^4 Klebsiella pneumoniae, injected by the intramuscular route in mice, results in the gradual death of a considerable part, if not all, of the animals in the week following the inoculation. After 8 days, the survival of the animals was definitely achieved.
(§3) The infection by Klebsiella pneumoniae, a strain of the capsular 2, biotype d type, was done from a culture of 16 hours in a medium for pneumococci (No. 53515, PASTEUR INSTITUTE).
(§4) Various treatment conditions and tests have been studied. Thus, the treatment was carried out either 24 hours before the test, or 1 hour after the latter. The influence of the infecting dose and the mode of administration has also been studied. In particular, the protective properties of the products have been determined in the case of an injection of Klebsiella pneumoniae by the intravenous route, which corresponds to a severe infection.
(§5) In the majority of cases, the tests have been carried out on mice aged from 5 to 6 weeks. In one part of the tests, on the other hand, mice 7 days old were used, since the immune responses, in very young subjects are substantially different, and, on the whole, much more difficult to stimulate than those that are observed in adult subjects.
(§6) The products are administered in apyrogenic physiological solution in the proportion of 0.2 ml for intravenous administration to adult mice and 0.05 ml for sub-cutaneous injection to mice 7 days old. The controls received the solution alone.
(§7) The percentage protection indicated corresponds to the difference in percentages of survivors of the treated group with respect to the control group.
The results reported in the following table represent the tests carried out in mice aged 7 days.

Klebsiella pneumoniae [2] = assay: Anti-Klebsiella pneumoniae activity in the adult mouse; type: in vivo; details: for anti-infectious activity with respect to Klebsiella pneumoniae (in words) / % Protection / Number of mice D + 3 (survivors) / Number of mice D + 5 (survivors) / Number of mice D + 10 (survivors): adult mouse; for anti-infectious activity with respect to Klebsiella pneumoniae (in words): summary of Table 3; for % Protection / Number of mice D + 3 (survivors) / Number of mice D + 5 (survivors) / Number of mice D + 10 (survivors): i.v.
Method: An experimental procedure was studied by CHEDID L. et coll. in "Proc. Natl. Acad. Sci. USA," 1977, 74: 2089, which permits the stimulating effect or not to be observed of substances studied with regard to immune defenses according as they protect or not the mice to which they are injected, the mice being inoculated by a dose of Klebsiella pneumoniae which results in the death of almost all of the controls.
as §1, §2
The survival of groups of inoculated mice under the above conditions and treated by means of the products according to the invention was followed.
For these tests, hybrid mice (C57B1/6×AKR) FI bred at the PASTEUR INSTITUTE, from strains derived from the CNRS breeding station at ORLEANS, were used.
as §3, §4, §5, §6, §7

[3] = system: suprarenalectomized mouse; assay: Toxicity, intravenous injection in the suprarenalectomized mouse; type: in vivo
Text: The toxicity of the products according to the invention were studied by parenteral administration in mice. It was observed that the toxic doses were of an order of magnitude very much higher than that of the doses at which these products manifest their activity.
In addition, the activity/toxicity ratio is very favorable in the case of the pol-PAP-MDP, as appears when one considers the results of the tests reported below.

Listeria monocytogenes = assay: Anti-Listeria monocytogenes activity in the adult mouse; type: in vivo; details: Listeria i.v. 10^3, treatment D-1, i.v.
Method: Under similar conditions to those of the tests of (4), the influence of the administration of the oligomer of p.aminophenyl-glycoside MDP was determined on the mortality of mice in which a dose of Listeria monocytogenes is administered, known for generating typically an infection of cellular type. As previously, the action of the product according to the invention was compared with that of Corynebacterium granulosum of which the anti-infectious properties are well known in this field. It was also determined, still by way of comparison, the action of Mur-NAc-L-Ala-D-isoGln (MDP).
The treatment of the mice and the inoculation were carried out intravenously. The injected products were in solution or suspension in 0.2 ml of apyrogenic physiological solution. The controls only received the solution.
The dose of Listeria administered was, in all the tests, 1.10^3 units.
The test whose results are given below have been carried out varying the doses of the tested products and the interval of time separating the treatment of inoculation of the Listeria monocytogenes (either 1, or 7 days). The number of surviving mice at the fifth and the tenth day following the inoculation was followed, and the percentage protection determined as for the preceding tests.

[4] = system: Limulus amoebocyte lysate; assay: Limulus test (endotoxic type activity, gel formation)
Method: To show the absence of activity of the endotoxic type, products according to the invention were subjected to the Limulus test. For this purpose, 0.1 ml of the Limulus amoebocyte lysate preparation (marketed by the MALLINCKRODT Company, at Saint Louis, U.S.A.) was mixed with an equal volume of the tested product at various concentrations in solution in apyrogenic distilled water. The vessels used were also made apyrogenic by dry heating in the oven, at 180° C., for 2 hours.
After incubating the mixture for 20 minutes at 37° C. in tubes, the formation of gel characteristic of the presence of endotoxin was estimated.
A test is positive when the presence of a firm gel is observed which remains adherent to the bottom of the tube when the latter is inverted (technique described by Elin R. J. and Wolff S. M., J. Infect. Dis., 1973, 126: 349).

[5] = system: bovine serum albumin (BSA); assay: Adjuvant character in the aqueous phase (anti-BSA antibody titer, passive hemagglutination); type: in vivo, Swiss mice; details: 100 μg adjuvant s.c. with 0.5 mg BSA in isotonic saline; booster day 30; six days after booster; maximum serum dilution agglutinating
Method: Groups of 8 Swiss mice aged two months received, by sub-cutaneous injection (SC), 0.5 mg of antigen constituted by bovine serum albumin (BSA) with 0.1 mg or without the tested substance in an isotonic saline solution. This high dose of antigen, because it is situated at the limit of the paralyzing dose with respect to the immunitary response, results, for this reason, in a weak or zero response to the antigen only in the controls: It constitutes therefore a severe criterion to establish the activity of an adjuvant substance. Thirty days later, the mice received, by the same administrative route, a booster containing 0.1 mg of the same antigen.
The antibody level was determined, six days after the booster, by passive hemagglutination using sheep's red blood corpuscles treated with formalin and covered with the antigen studied according to the method described by A. A. HIRATA and M. W. BRANDISS (J. Immunol., 100, 641-648, 1968).
The antibody titer, represented by the maximum serum dilution agglutinating a given amount of sheep corpuscles, reaches a maximum at the 36th day. The results obtained for various products according to the invention are shown in Table I. By way of comparison, the results obtained with MDP are indicated, on the one hand, and for PAP-MDP, on the other hand.

ovalbumin [6] = assay: Adjuvant character in emulsion: serum antibodies specific for ovalbumin; type: in vivo, Hartley guinea pigs; details: emulsion with 1 mg ovalbumin, intradermal; product 50 μg in FIA; day 21; μg nitrogen precipitatable by antigen per ml serum
Method: (§8) The tests were carried out on batches of 6 male Hartley guinea pigs of 350 g. The administration was done by intradermal injection into the plantar pad of each of the rear paws. Ovalbumin (constituting the antigen) in the amount of 1 mg is prepared in 0.1 ml of an emulsion of saline isotonic solution, in an oily phase constituted either by the Freund incomplete adjuvant (FIA) or by the complete adjuvant (FCA) formed by the FIA to which is added 0.1 mg of whole Mycobacterium smegmatis cells. The compound according to the invention was administered in the amount of 0.05 mg added in the emulsion containing the FIA.
Twenty-one days after the injection, the animals were bled. On the collected serum, the content of specific antibodies of the ovalbumin was measured by precipitation of the antibody-antigen complex in the equivalence zone. The amount of protein nitrogen contained in the precipitate was estimated by the Folin method. These values express the amount, in micrograms, of nitrogen precipitatable by the antigen, per milliliter of the serum.

ovalbumin [7] = assay: Adjuvant character in emulsion: delayed hypersensitivity cutaneous test; type: in vivo, Hartley guinea pigs; details: emulsion with 1 mg ovalbumin, intradermal; product 50 μg in FIA; challenge day 18, read 48 hours later
Method: as §8
Eighteen days after this immunization, possible delayed hypersensitivity reactions to the antigen were sought by injecting by the intradermal route 0.01 mg of ovalbumin in the side of the animals, and 48 hours later, the reaction of the point of injection was observed. The diameter in millimeters of the reaction thus-caused was measured.

[8] = infection i.v. 2.5 × 10^2, treatment -24 h, s.c.
[9] = infection s.c. 10^3, treatment -24, s.c.
[10] = infection i.m. 1.5 × 10^4, treatment +1 h, 10 μg
[11] = infection i.m. 1.5 × 10^4, treatment +1 h, 100 μg
[12] = infection i.m. 1.5 × 10^4, treatment -24 h, 10 μg
[13] = infection i.m. 1.5 × 10^4, treatment -24 h, 100 μg
[14] = infection i.v. 1.5 × 10^3, treatment -24 h, 10 μg
[15] = infection i.v. 1.5 × 10^3, treatment -24 h, 100 μg
[16] = infection i.v. 1.5 × 10^5, treatment -24 h, 100 μg

polymer of β-D-p.aminophenyl-glycoside of Mur-NAc-L-Ala-D-isoGln [Pol (PAP-MDP)]
% Protection (Klebsiella pneumoniae [1]; [8]): 41%
Number of mice D + 3 (survivors) (Klebsiella pneumoniae [1]; [8]): 14
Number of mice D + 5 (survivors) (Klebsiella pneumoniae [1]; [8]): 10
Number of mice D + 10 (survivors) (Klebsiella pneumoniae [1]; [8]): 9
% Protection (Klebsiella pneumoniae [1]; [9]): 34%
Number of mice D + 3 (survivors) (Klebsiella pneumoniae [1]; [9]): 22
Number of mice D + 5 (survivors) (Klebsiella pneumoniae [1]; [9]): 19
Number of mice D + 10 (survivors) (Klebsiella pneumoniae [1]; [9]): 19
anti-infectious activity with respect to Klebsiella pneumoniae (in words) (Klebsiella pneumoniae [1]; summary of Table 4): notable anti-infectious activity
anti-infectious activity with respect to Klebsiella pneumoniae (in words) (Klebsiella pneumoniae [2]): anti-infectious
% Protection (Klebsiella pneumoniae [2]; [10]): 50%
Number of mice D + 3 (survivors) (Klebsiella pneumoniae [2]; [10]): 16
Number of mice D + 5 (survivors) (Klebsiella pneumoniae [2]; [10]): 13
Number of mice D + 10 (survivors) (Klebsiella pneumoniae [2]; [10]): 11
% Protection (Klebsiella pneumoniae [2]; [11]): 81%
Number of mice D + 3 (survivors) (Klebsiella pneumoniae [2]; [11]): 16
Number of mice D + 5 (survivors) (Klebsiella pneumoniae [2]; [11]): 16
Number of mice D + 10 (survivors) (Klebsiella pneumoniae [2]; [11]): 16
% Protection (Klebsiella pneumoniae [2]; [12]): 58%
Number of mice D + 3 (survivors) (Klebsiella pneumoniae [2]; [12]): 24
Number of mice D + 5 (survivors) (Klebsiella pneumoniae [2]; [12]): 21
Number of mice D + 10 (survivors) (Klebsiella pneumoniae [2]; [12]): 19
% Protection (Klebsiella pneumoniae [2]; [13]): 72%
Number of mice D + 3 (survivors) (Klebsiella pneumoniae [2]; [13]): 24
Number of mice D + 5 (survivors) (Klebsiella pneumoniae [2]; [13]): 24
Number of mice D + 10 (survivors) (Klebsiella pneumoniae [2]; [13]): 22
% Protection (Klebsiella pneumoniae [2]; [14]): 16%
Number of mice D + 3 (survivors) (Klebsiella pneumoniae [2]; [14]): 22
Number of mice D + 5 (survivors) (Klebsiella pneumoniae [2]; [14]): 17
Number of mice D + 10 (survivors) (Klebsiella pneumoniae [2]; [14]): 9
% Protection (Klebsiella pneumoniae [2]; [15]): 75%
Number of mice D + 3 (survivors) (Klebsiella pneumoniae [2]; [15]): 15
Number of mice D + 5 (survivors) (Klebsiella pneumoniae [2]; [15]): 14
Number of mice D + 10 (survivors) (Klebsiella pneumoniae [2]; [15]): 14
% Protection (Klebsiella pneumoniae [2]; [16]): 12%
Number of mice D + 3 (survivors) (Klebsiella pneumoniae [2]; [16]): 12
Number of mice D + 5 (survivors) (Klebsiella pneumoniae [2]; [16]): 4
Number of mice D + 10 (survivors) (Klebsiella pneumoniae [2]; [16]): 3
active dose (anti-infectious activity) (Klebsiella pneumoniae [2]; as stated in the Limulus discussion): 10 μg per mouse
lethal dose 50 [3]: higher than 100 μg
times less toxic than endotoxin extracted from E. coli [3]: 5000 times
% Protection (Listeria monocytogenes; 10 μg): 29%
Number of mice D + 5 (survivors) (Listeria monocytogenes; 10 μg): 10
Number of mice D + 10 (survivors) (Listeria monocytogenes; 10 μg): 6
% Protection (Listeria monocytogenes; 100 μg): 71%
Number of mice D + 5 (survivors) (Listeria monocytogenes; 100 μg): 23
Number of mice D + 10 (survivors) (Listeria monocytogenes; 100 μg): 19
times less active than the LPS on Limulus test [4]: 500,000 times
concentration leading to a positive response (Limulus test) ([4]; 20 minutes at 37° C., firm gel): ~15000 ng/mL
Antibody titer [5]: 50

N^ε.N^ε' 'bis(N-acetyl-muramyl-L-alanyl-D-isoglutamine-L-lysine)-adipimidyl, dichlorohydrate [Adipimidyl-bis-MDP-Lys]
Serum antibodies (ovalbumin [6]): 6000 µg/mL
% Protection (Klebsiella pneumoniae [2]; [13]): 44%
Number of mice D + 3 (survivors) (Klebsiella pneumoniae [2]; [13]): 27
Number of mice D + 5 (survivors) (Klebsiella pneumoniae [2]; [13]): 23
Number of mice D + 10 (survivors) (Klebsiella pneumoniae [2]; [13]): 22
Cutaneous test diameter in mm (ovalbumin [7]): 17 mm
Antibody titer [5]: 200

CC(=O)N[C@H]1[C@H](Oc2ccc(N)cc2)O[C@H](CO)[C@@H](O)[C@@H]1O[C@H](C)C(=O)N[C@@H](C)C(=O)N[C@H](CCC(=O)O)C(N)=O [PAP-MDP, β-D-p.aminophenyl glycoside of N-acetyl-muramyl-L-alanyl-D-isoglutamine, reference compound]
Serum antibodies (ovalbumin [6]): 3480 µg/mL
anti-infectious activity with respect to Klebsiella pneumoniae (in words) (Klebsiella pneumoniae [2]): practically not
% Protection (Klebsiella pneumoniae [2]; [13]): 19%
Number of mice D + 3 (survivors) (Klebsiella pneumoniae [2]; [13]): 28
Number of mice D + 5 (survivors) (Klebsiella pneumoniae [2]; [13]): 17
Number of mice D + 10 (survivors) (Klebsiella pneumoniae [2]; [13]): 11
% Protection (Klebsiella pneumoniae [2]; [15]): 0%
Number of mice D + 3 (survivors) (Klebsiella pneumoniae [2]; [15]): 6
Number of mice D + 5 (survivors) (Klebsiella pneumoniae [2]; [15]): 2
Number of mice D + 10 (survivors) (Klebsiella pneumoniae [2]; [15]): 2
Cutaneous test diameter in mm (ovalbumin [7]): 14.4 mm
Antibody titer [5]: 11
